Some test systems named below: DLD-1 colon; DMS 273 small cell lung; HOP-18 NSCLC; KM20L2 colon; XF 498 CNS; MDA-MB-231 breast; MDA-N; LXFL 529 NSCLC; RXF-631 renal.
Common to all, as to assay: NCI anticancer screen, dose series, 48 h

Several values for one entry are separate records, joined by “and”; a condition that tells them apart may be missing. Equal values may be shown once.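 96-well plates; 48 h exposure; 5 concentrations. Endpoints by linear interpolation between flanking doses. Not reached: highest tested concentration assigned. The concentration for 50% growth inhibition is given as GI50. TGI: total growth inhibition.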

Data on 32 compounds can be found in PubChem BioAssay (NCI).

As to `COC(=O)C(C(=O)C(=O)Nc1ccc(N)cc1[N+](=O)[O-])c1nc2ccc(Cl)cc2[nH]c1=O` (stereo not given), the TGI in the assay on DLD-1 colon, in the assay on DMS 273 small cell lung, in the assay with HOP-18 NSCLC, with KM20L2 colon and in the assay on XF 498 CNS was greater than 100 µM throughout.

With `Nc1ncnc2c1ncn2C1OC(C(=O)OCCO)C(O)C1O` (stereo not given), the TGI in the assay on MDA-MB-231 breast and in the assay with MDA-N was greater than 100 µM throughout.

With `NCCNc1ncnc2ccc(Cl)cc12`, the TGI with MDA-MB-231 breast and in the assay with MDA-N was greater than 100 µM in each case.

In the case of `CCN1C(=O)N(CC)C2C1NN=c1s/c(=C\c3cnc(C)n3C)c(=O)n12` (stereo not given), in the assay on MDA-MB-231 breast, the GI50 is 2.5 µM and the TGI turned out to be 31.9 µM.

On to `COC(=O)[C@]1(C)CC[C@]2(C)CC[C@]3(C)C(=CC(=O)[C@@H]4[C@@]5(C)CCC(=O)NC(C)(C)[C@@H]5CC[C@]43C)[C@@H]2C1`, for which, in the assay with MDA-MB-231 breast, the GI50 was 20.9 µM and the TGI is 48.7 µM.

With `COc1ccc([Se]c2ccc(OC)cc2)cc1`, the TGI in the assay with DLD-1 colon, in the assay on DMS 273 small cell lung, in the assay on HOP-18 NSCLC, with KM20L2 colon and in the assay on XF 498 CNS was greater than 100 µM each time.

As to `COC(=O)C1=C(O)C(C(=O)OC)[C@@]2(O)[C@@H](C(=O)OC)C(c3ccccc3Cl)C[C@@H]1[C@@H]2C(=O)OC` (stereo not given in full), in the assay on MDA-MB-231 breast, the GI50 was 6.56 µM and the TGI is 20.7 µM.

For `COc1ccc(OC)c(/C=C/C(=O)c2ccc3cc(OC)ccc3c2)c1`, in the assay on MDA-MB-231 breast, the GI50 is greater than 50 µM and the TGI was greater than 50 µM.

`COc1cc[nH]c1/C=C1\C(=O)Nc2ccc([N+](=O)[O-])c(N3CC[C@@H](O)C3)c21`: in the assay on MDA-MB-231 breast, the GI50 was 0.479 µM and the TGI was 2.31 µM.

In the case of `CC(=O)OC1(C#N)CC2OC1C1NC21` (stereo not given), the TGI in the assay on DLD-1 colon, with KM20L2 colon, in the assay on LXFL 529 NSCLC, with RXF-631 renal and in the assay with XF 498 CNS was greater than 100 µM each time.

With `O=C(OCc1ccccc1)c1ccccc1-c1c2ccc(=O)cc-2oc2cc(OCc3ccccc3)ccc12`, the TGI with DLD-1 colon was 39.1 µM; in the assay with DMS 273 small cell lung, greater than 100 µM; with KM20L2 colon, greater than 100 µM; in the assay on LXFL 529 NSCLC it was greater than 100 µM; in the assay with XF 498 CNS it was 33.6 µM.

Regarding `Cn1c(=O)c2[nH]cnc2n(C)c1=O.[CH2-]C(Cc1cccc2cc(C(=O)O)c(=O)oc12)OC.[Hg+2].[OH-]` (stereo not given), in the assay with MDA-MB-231 breast, the GI50 was 20.9 µM and the TGI came to 35.6 µM. Besides, in the assay with MDA-N, the GI50 is 17.2 µM and the TGI was 30.9 µM.

Take `C(=NCCN=Cc1cccc2ccccc12)c1cccc2ccccc12`: the TGI in the assay with DLD-1 colon, with DMS 273 small cell lung, in the assay with HOP-18 NSCLC, in the assay on KM20L2 colon, in the assay with LXFL 529 NSCLC and in the assay on XF 498 CNS was greater than 100 µM each time.

For the compound `C#Cc1ccccc1N1C(=O)C=CC1=O`, the TGI in the assay on DLD-1 colon, in the assay on KM20L2 colon and in the assay with LXFL 529 NSCLC was greater than 100 µM throughout.

`Nc1cc(N)c2nc(-c3ccccc3)c(Oc3ccc(Cl)c(Cl)c3)nc2c1`: in the assay with MDA-MB-231 breast, the GI50 was 10.3 µM and the TGI turned out to be 26.2 µM.

As for `NC(N)=NC(N)=NCc1ccco1`, in the assay with MDA-MB-231 breast, the GI50 was greater than 1250 µM and the TGI was greater than 1250 µM.

Turning to `CNCC1CCn2c(c(C3=C(c4cn(C)c5ccccc45)C(=O)NC3=O)c3ccccc32)C1` (stereo not given), in the assay on MDA-MB-231 breast, the GI50 was 2.54 µM and the TGI is 7.27 µM.

`CN/N=C(/CC(=O)c1sc(NNC(C)=O)nc1C)C(=O)Nc1ccc(OC)cc1OC`: the TGI in the assay with DLD-1 colon, in the assay on DMS 273 small cell lung, with KM20L2 colon, in the assay with LXFL 529 NSCLC and in the assay on XF 498 CNS was greater than 100 µM in each case.

On to `CCCCCCCCCCCCCCCC(N)c1ccccc1` (stereo not given), for which, in the assay on MDA-MB-231 breast, the GI50 was 1.35 µM and the TGI is 2.95 µM.

Turning to `O=S1(=O)C=C(c2ccccc2)C(c2ccccc2)=C1`, in the assay on MDA-MB-231 breast, the GI50 is 1.62 µM and the TGI turned out to be 3.09 µM.

As for `O=C1C=C(OCC=C(Cl)Cl)C(=O)c2ccccc21`, in the assay on MDA-MB-231 breast, the GI50 was 3.11 µM and the TGI stood at 17.7 µM.

With `COc1ccc2c(c1)C(=O)c1c-2n(CCCNCCO)c(=O)c2cc([N+](=O)[O-])ccc12`, in the assay with MDA-MB-231 breast, the GI50 was 0.594 µM and the TGI stood at 2.34 µM.

On to `O=C1/C(=C/c2cccc(F)c2)CN(C(=O)C(Cl)Cl)C/C1=C\c1cccc(F)c1`, for which, in the assay with MDA-MB-231 breast, the GI50 was 0.248 µM and the TGI amounted to 0.671 µM.

Take `NS(=O)(=O)c1ccc(N=Nc2c(=O)[nH]c3ccc4[nH]cccc4c23)cc1`: in the assay on MDA-MB-231 breast, the GI50 is 0.885 µM and the TGI is greater than 7.89 µM.

As to `ClCCCN1CCCCC1CCl` (stereo not given), the TGI in the assay with DLD-1 colon, in the assay with DMS 273 small cell lung, with HOP-18 NSCLC, with KM20L2 colon and in the assay with LXFL 529 NSCLC was greater than 100 µM in each case.

For `COc1cc(OC)c2c(c1Cl)O[C@]1(C2=O)C(OCc2ccccc2)=CC(=O)C[C@H]1C`, in the assay with MDA-MB-231 breast, the GI50 is 1.22 µM and the TGI came out at 5.02 µM.

In the case of `CC(=O)Nc1cc(CN2CCCCC2)c(O)c2ncccc12`, the TGI was 55.6 µM in the assay on MDA-MB-231 breast and greater than 100 µM in the assay on MDA-N.

`C[C@H](c1ccc(Cl)cc1[N+](=O)[O-])N1C(=O)c2cc(I)ccc2NC(=O)[C@H]1c1ccc(Cl)cc1`: in the assay on MDA-MB-231 breast, the GI50 was 3.46 µM and the TGI is greater than 100 µM.

For the compound `COc1ccc(-c2cc(=O)c3cccnc3[nH]2)cc1`, the TGI was greater than 100 µM with MDA-MB-231 breast and 78.3 µM with MDA-N. For the same compound, the GI50 in the assay with MDA-N is 20.8 µM.

As for `C=CC(=O)Nc1cccc(Nc2nc(Nc3ccc(N4CCN(C(C)=O)CC4)cc3OC)ncc2C(F)(F)F)c1`, in the assay with MDA-MB-231 breast, the GI50 was 4.47 µM and 4.02 µM; the TGI was > 10 µM and 20.6 µM.

Take `Nc1nc(N)c(-c2ccc(Cl)cc2)c(/C=C/c2ccc([N+](=O)[O-])cc2)n1`: in the assay with MDA-MB-231 breast, the GI50 was 8.01 µM and the TGI was greater than 100 µM.

As for `CC(C)CC1NC(=O)C(C(C)C)NC(=O)CC(C)COC(=O)C(CC(C)C)N(C)C(=O)C(C(C)C)NC(=O)C(C(C)C)OC1=O` (stereo not given), the TGI in the assay on MDA-MB-231 breast and in the assay on MDA-N was greater than 50 µM in each case.
